pEC50: −log10 of the molar value. “And” between values parts separate entries of the source, which are not always exact repeats. Equal values may be shown once.
What was measured:
AsPC-1 = test: Cytotoxic activity in vitro, SRB; type: cell-based, human
How it was run: (§1)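 Growth inhibition of human cancer cell lines was assessed by SRB staining (NCI-recommended). Potency is reported as EC50 versus control.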

DU-145 = test: Cytotoxic activity in vitro, SRB; type: cell-based, human
How it was run: as §1

H-460 = test: Cytotoxic activity in vitro, SRB; type: cell-based, human
How it was run: as §1

HCT-116 = test: Cytotoxic activity in vitro, SRB; type: cell-based, human
How it was run: as §1

HT-29 = test: Cytotoxic activity in vitro, SRB; type: cell-based, human
How it was run: as §1

MCF-7 = test: Cytotoxic activity in vitro, SRB; type: cell-based, human
How it was run: as §1

MDA-MB-231 = test: Cytotoxic activity in vitro, SRB; type: cell-based, human
How it was run: as §1

MiaPaCa-2 = test: Cytotoxic activity in vitro, SRB; type: cell-based, human
How it was run: as §1

PANC-1 = test: Cytotoxic activity in vitro, SRB; type: cell-based, human
How it was run: as §1

PC-3 = test: Cytotoxic activity in vitro, SRB; type: cell-based, human
How it was run: as §1

UM-UC-3 = test: Cytotoxic activity in vitro, SRB; type: cell-based, human
How it was run: as §1

DU 145 = test: Anti-neoplasmic activity against xenograft in hairless mice; type: in vivo
Description: (§2) For this, we selected 26 bis-acridines, mainly on the basis of the cytotoxic activity. We performed 34 series of experiments evaluating the anti-neoplasmic activity on xenografts in hairless mice against eleven neoplasms of human origin from the determination of the cytotoxic activity of bis-acridines (table 4). The tumours were injected subcutaneously to hairless mice of 5-weeks, female Crl:Nu-Foxnlnu, at a rate of 5×10^6 cells per mouse. After attaining a tumour of about 100 mm^3 or 200 mm^3 in depending on the neoplasm and its take this was 8 or even 30 days, and began therapy. On the day therapy was initiated, we randomised the animals and divided them into groups. Test groups were from 6 to 8 animals, and controls had from 8 to 14 animals. Each compound was tested at three differentiated doses.
(§3) The preparations were administered intravenously (i.v.) twice weekly for 4 weeks (thrice weekly for rapidly growing neoplasms). In several series, we used intraperitoneally (i.p.) administration in the same scheme. […] The therapeutic efficacy of the tested formulations was evaluated by measuring tumour size (length and width measurements of the tumour on the basis of the calculated tumour volume). Tumours were measured twice weekly for a period of about 30 days for fast-growing neoplasms, as well as about 60 days for the slow-growing neoplasms. The tumour volume in the treated groups compared with the control group. On this basis, inhibition of tumour growth was calculated using the following formula: Tumour growth inhibition TGI [%]=100−(ΔVT/ΔVC×100) Where ΔVT—is mean the tumour volume in animals in the group treated at the given day of treatment, minus the mean tumour volume in animals at the date of commencement of therapy. ΔVC is mean tumour volume in animals in the control group on a given day of treatment minus the average tumour volume of animals on the date of commencement of therapy. The results of the tests of anti-neoplasmic activity conducted in xenografts of human-origin neoplasms in mice are shown in Table 5.
(§4) The result above was accepted only in the case that the dose administered in all animals or more than half of the animals that survived to the end of the experiment. In addition, the evaluation was the day that the administration of the preparation was already completed: for the fast-growing neoplasms (eg. HCT116) this was in the days from 15 to 26, while for slow-growing neoplasms (eg. Panc 1) on a day from 34 to 60. […] In addition, the maximum inhibition of neoplasms could be identified in the day, in which there were no factors that could change the value TGI value.
(§5) Such factors may include: a significant decrease in body weight, the appearance of observable toxaemia, excessive rate of tumour growth: tumours in excess of 2000 mm^3 and all animals alive on that day.

HCT 116 = test: as above; type: in vivo
Description: as §2, §3, §4, §5

PC 3 = test: as above; type: in vivo; conditions: day 39
Description: as §2, §3, §4, §5

BxPC-3 = test: Cytotoxic activity in vitro, SRB; type: cell-based, human
How it was run: as §1

H 460 = test: Anti-neoplasmic activity against xenograft in hairless mice; type: in vivo
Description: as §2, §3, §4, §5

MDA MB 231 = test: as above; type: in vivo; conditions: series 19, i.v.
Description: as §2, §3, §4, §5

PANC 1 = test: as above; type: in vivo
Description: as §2, §3, §4, §5

UM UC 3 = test: as above; type: in vivo; conditions: series 11, i.v., day 23
Description: as §2, §3, §4, §5

Capan-2 = test: Cytotoxic activity in vitro, SRB; type: cell-based, human
How it was run: as §1

Mia Pa Ca 2 = test: Anti-neoplasmic activity against xenograft in hairless mice; type: in vivo
Description: as §2, §3, §4, §5

AsPC 1 = test: as above; type: in vivo
Description: as §2, §3, §4, §5

BXPC 3 = test: as above; type: in vivo
Description: as §2, §3, §4, §5

Structure (SMILES)	pEC50 (AsPC-1)	pEC50 (DU-145)	pEC50 (H-460)	pEC50 (HCT-116)	pEC50 (HT-29)	pEC50 (MCF-7)	pEC50 (MDA-MB-231)	pEC50 (MiaPaCa-2)	pEC50 (PANC-1)	pEC50 (PC-3)	pEC50 (UM-UC-3)	pEC50 (BxPC-3)	pEC50 (Capan-2)	also measured
CN(CCCNc1c2ccccc2nc2cccc([N+](=O)[O-])c12)CCCNc1ccc([N+](=O)[O-])c2[nH]c3ccc(O)cc3c(=O)c12 [C-1906, 9-{N-[(7-hydroxy-4-nitro-9(10H)acridono-1-yl)aminopropyl]-N-methylaminopropylamino}-1′-nitroacridone]	6.87	7.37	7.85	7.82	7.66	7.13	7.70	7.62	7.49	7.28	7.85	–	–	TGI [%] [100 − (ΔVT/ΔVC × 100] (DU 145; series 1, i.p., single 2 mg/kg, total 6 mg/kg, day 35, *at least half of animals did not survive): 60* %; TGI [%] [100 − (ΔVT/ΔVC × 100] (HCT 116; series 9, i.v., single 1 mg/kg, total 5 mg/kg, day 16, *at least half of animals did not survive): 32* %; TGI [%] [100 − (ΔVT/ΔVC × 100] (PC 3; series 15, i.p., single 2 mg/kg, total 12 mg/kg): 52%
Cc1ccc(NCCCN2CCN(CCCNc3c4ccccc4nc4cccc([N+](=O)[O-])c34)CC2)c2c(=O)c3ccccc3[nH]c12 [C-1973, 1-[3-(4-methyl-9(10H)-acridono-1-yl)aminopropyl]-4-3′-[(1′-nitroacridin-1-yl)-aminopropyl]piperazine]	7.10	7.70	8.30	7.72	7.64	6.95	7.55	7.80	7.57	7.32	8.02	7.23	–	TGI [%] [100 − (ΔVT/ΔVC × 100] (DU 145; series 13, i.v., single 4 mg/kg, total 32 mg/kg, day 63): 90%; TGI [%] [100 − (ΔVT/ΔVC × 100] (DU 145; series 18, i.v., single 1 mg/kg, total 8 mg/kg, day 33): 51%; TGI [%] [100 − (ΔVT/ΔVC × 100] (H 460; series 16, i.v., single 2 mg/kg, total 10 mg/kg, day 21): 42%; TGI [%] [100 − (ΔVT/ΔVC × 100] (MDA MB 231; single 1 mg/kg, total 8 mg/kg, day 50): 30%; TGI [%] [100 − (ΔVT/ΔVC × 100] (PANC 1; series 31, i.v., single 2 mg/kg, total 16 mg/kg, day 37): 75%; TGI [%] [100 − (ΔVT/ΔVC × 100] (UM UC 3; single 2 mg/kg, total 14 mg/kg): 46%
O=c1c2cc(O)ccc2n2cnc3ccc(NCCCN4CCN(CCCNc5c6ccccc6nc6cccc([N+](=O)[O-])c56)CC4)c1c32 [C-2027, 1-[3-(8-hydroxy-imidazo[4,5,1-de]-acridin-6-on-5-yl)aminopropyl]-4-[3′-(1′-nitroacridin-1-yl)-aminopropyl]piperazine]	6.72	7.70	7.77	7.70	7.09	7.21	7.72	7.68	7.62	7.46	7.74	6.79	7.37	TGI [%] [100 − (ΔVT/ΔVC × 100] (HCT 116; series 7, i.v., single 2.5 mg/kg, total 15 mg/kg, day 15): 15%; TGI [%] [100 − (ΔVT/ΔVC × 100] (Mia Pa Ca 2; series 12, i.v., single 2 mg/kg, total 16 mg/kg, day 26): 29%; TGI [%] [100 − (ΔVT/ΔVC × 100] (PANC 1; series 10, i.v., single 2 mg/kg, total 10 mg/kg, day 45): 83%; TGI [%] [100 − (ΔVT/ΔVC × 100] (PANC 1; series 14, i.v., single 1 mg/kg, total 10 mg/kg, day 45): 23%; TGI [%] [100 − (ΔVT/ΔVC × 100] (PANC 1; series 30, i.v., single 1 mg/kg, total 8 mg/kg, day 32, *at least half of animals did not survive): 51* %; TGI [%] [100 − (ΔVT/ΔVC × 100] (UM UC 3; single 4 mg/kg, total 28 mg/kg): 47%
CN(CCCNc1c2ccccc2nc2cccc([N+](=O)[O-])c12)CCCNc1ccc2ncn3c4ccccc4c(=O)c1c23 [C-2028, 9-{N-[(imidazo[4,5,1-de]-acridin-6-on-5-yl)aminopropyl]-N-methylaminopropylamino}-1′-nitroacridine]	7.21	7.64	7.82	7.77	7.43	7.28	7.77	7.10	7.62	7.55	8.00	7.13	7.96	TGI (AsPC 1; ASP-1, threshold activity): < 50%; TGI [%] [100 − (ΔVT/ΔVC × 100] (AsPC 1; series 23, i.v., single 6 mg/kg, total 48 mg/kg, day 46): 35%; TGI (BXPC 3; BXPC-3, significant activity): 64%; TGI [%] [100 − (ΔVT/ΔVC × 100] (BXPC 3; series 21, i.v., single 6 mg/kg, total 30 mg/kg, day 37): 64%; TGI [%] [100 − (ΔVT/ΔVC × 100] (BXPC 3; series 33, i.v., single 4 mg/kg, total 32 mg/kg, day 36): 43%; TGI [%] [100 − (ΔVT/ΔVC × 100] (DU 145; series 13, i.v., single 4 mg/kg, total 32 mg/kg, day 40): 46%; TGI [%] [100 − (ΔVT/ΔVC × 100] (H 460; series 16, i.v., single 1 mg/kg, total 5 mg/kg, day 28): 31%; TGI [%] [100 − (ΔVT/ΔVC × 100] (HCT 116; series 7, i.v., single 4 mg/kg, total 24 mg/kg, day 15): 34%; TGI [%] [100 − (ΔVT/ΔVC × 100] (MDA MB 231; single 2 mg/kg, total 16 mg/kg, day 25): 44%; TGI (Mia Pa Ca 2; MiaPa Ca2, threshold activity): < 50%; TGI [%] [100 − (ΔVT/ΔVC × 100] (Mia Pa Ca 2; series 12, i.v., single 6 mg/kg, total 42 mg/kg, day 36): 52%; TGI [%] [100 − (ΔVT/ΔVC × 100] (Mia Pa Ca 2; series 28, i.v., single 2 mg/kg, total 8 mg/kg, day 11, *at least half of animals did not survive): 68* %; TGI (PANC 1; PANC-1 cancer, three consecutive experimental runs): 71% and 90% and 82%; TGI [%] [100 − (ΔVT/ΔVC × 100] (PANC 1; series 10, i.v., single 1 mg/kg, total 10 mg/kg, day 31): 71%; TGI [%] [100 − (ΔVT/ΔVC × 100] (PANC 1; series 14, i.v., single 4 mg/kg, total 36 mg/kg, day 45): 90%; TGI [%] [100 − (ΔVT/ΔVC × 100] (PANC 1; series 29, i.v., single 4 mg/kg, total 20 mg/kg, day 36): 59%; TGI [%] [100 − (ΔVT/ΔVC × 100] (PANC 1; series 32, i.v, single 2 mg/kg, total 16 mg/kg, day 40): 82%; TGI [%] [100 − (ΔVT/ΔVC × 100] (PC 3; series 12, i.p., single 1 mg/kg, total 8 mg/kg): 30%; TGI [%] [100 − (ΔVT/ΔVC × 100] (UM UC 3; single 6 mg/kg, total 42 mg/kg): 54%
O=c1c2ccccc2[nH]c2c([N+](=O)[O-])ccc(NCCCN3CCN(CCCNc4c5ccccc5nc5cccc([N+](=O)[O-])c45)CC3)c12 [C-2031, 1-[3-(4-nitro-9(10H)-acridono-1-yl)aminopropyl]-4-[3′-(1′-nitroacridin-1-yl)-aminopropyl]piperazine]	7.11	7.96	8.05	7.70	–	7.11	7.55	7.55	7.25	7.59	7.77	–	–	TGI [%] [100 − (ΔVT/ΔVC × 100] (DU 145; series 13, i.v., single 4 mg/kg, total 32 mg/kg, day 35): 77%; TGI [%] [100 − (ΔVT/ΔVC × 100] (DU 145; series 18, i.p., single 1 mg/kg, total 8 mg/kg, day 64): 81%; TGI [%] [100 − (ΔVT/ΔVC × 100] (H 460; series 6, i.v., single 8 mg/kg, total 48 mg/kg, day 23): 60%; TGI [%] [100 − (ΔVT/ΔVC × 100] (HCT 116; series 8, i.v., single 6 mg/kg, total 18 mg/kg, day 14, *at least half of animals did not survive): 52* %; TGI [%] [100 − (ΔVT/ΔVC × 100] (HCT 116; series 9, i.v., single 3 mg/kg, total 24 mg/kg, day 30): 34%; TGI [%] [100 − (ΔVT/ΔVC × 100] (PANC 1; series 10, i.v., single 3 mg/kg, total 30 mg/kg, day 45): 72%; TGI [%] [100 − (ΔVT/ΔVC × 100] (PANC 1; series 14, i.v., single 1 mg/kg, total 10 mg/kg, day 37): 27%; TGI [%] [100 − (ΔVT/ΔVC × 100] (PC 3; series 15, i.v., single 1 mg/kg, total 8 mg/kg): 30%
